From PubChem BioAssay AID652041 (Broad Institute, 2013)
Where “and” joins values, the source holds several entries; their conditions need not be identical. Equal entries are not always repeated.

Tested on: P. falciparum HB3 in RBCs, SYBR Green DNA fluorescence
Experiment: growth inhibition of P. falciparum HB3, dose response, HB3 strain, red blood cells, SYBR Green, cherry-picked (AID 652041);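 also: parasites exposed to compound for 72 hours before the DNA read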

Row | SMILES | AC35
1 | Oc1ccccc1-c1cc(-c2ccc3c(c2)OCCO3)n[nH]1 | 9.9 µM
2 | CC[n+]1c(/C=C/C=C/c2ccc(N(C)C)cc2)sc2ccccc21 | 2.68 µM
3 | COc1ccc(N(C)S(=O)(=O)c2ccc(Cl)c(C(=O)NNC(=O)c3ccccc3O)c2)cc1 | 35.8 µM
4 | CCC(C)c1ccc(NC(=S)NCCn2cc(Br)cn2)cc1 (stereo unspecified) | 10.5 µM
5 | Cc1[nH]n(-c2ccccc2)c(=O)c1/C=N/Nc1nncc(-c2ccccc2)n1 | 1.97 µM
6 | CC(=O)NC(c1cccc([N+](=O)[O-])c1)c1ccc2cccnc2c1O (stereo unspecified) | 1.77 µM
7 | CC(=O)C1=C(c2ccc(Br)cc2)C(=O)c2ccccc2C1=O | 0.472 µM
8 | CN(C)c1nc(-c2ccccn2)nnc1-c1ccccc1 | 2.54 µM
9 | Cc1ccoc1C(=O)Nc1cccc(Oc2ccccc2)c1 | 6.15 µM
10 | O=c1c2ccccc2nc(-c2cccc(Cl)c2)n1O | 28.2 µM
11 | O=C(CN1CC[n+]2c(-c3cccs3)csc21)c1ccc(-c2ccccc2)cc1 | 1.46 µM
12 | COc1ccc2[nH]c(=O)c(CN(Cc3cccnc3)C(=O)Nc3ccccc3)cc2c1 | 15.7 µM
13 | CCCCNc1c(-c2cccc(-c3ccc(OC)cc3)c2)nc2ccc(C)cn12 | 1.65 µM
14 | CN(C)c1ccc(C=c2c3cc(O)ccc3n3c2cc(-c2ccccc2)[n+]3C)cc1 | 0.247 µM
15 | Cc1nn(CCC#N)c(N)c1C1(O)C(=O)Nc2c(Cl)cc(Cl)cc21 (stereo unspecified) | 7.41 µM
16 | Oc1ccc(Br)cc1/C=N/Nc1ccccn1 | 1.61 µM
17 | CCCCCCCc1ccc(-c2ccc(O)cc2)nc1 | 4.88 µM
18 | Cc1ccccc1Oc1nc(-c2ccccn2)nc2ccccc12 | 4.4 µM
19 | O=C(O)CSc1nc(-c2ccc(Cl)cc2)nc2c1oc1ccccc12 | 28.6 µM
20 | Cc1nc2ccc(C(C(F)(F)F)(C(F)(F)F)C(F)(F)F)cc2[nH]1 | 11.2 µM
21 | Cc1c(C(=O)O)cccc1-c1ccc(/C=N/Nc2ccc(Br)cc2)o1 | 21.3 µM
22 | Cc1ccc(NC(=S)c2nc3ccccc3[nH]2)c(C)c1 | 5.68 µM
23 | Oc1ccc(/C=N/Nc2ccc(C(F)(F)F)cn2)c(O)c1 | 6.46 µM
24 | O=C(NCCC1=CCCCC1)c1c(O)nc2sccn2c1=O | 16.2 µM
25 | C(=C1c2ccccc2-c2ccccc21)c1ccncc1 | 18.2 µM

Row | SMILES | AC35
26 | Cc1cc(Cl)ccc1C(=O)C1CCCN(C(=O)c2cncs2)C1 (stereo unspecified) | 33.5 µM
27 | Cc1nc(SCc2ccc(OCCC(C)C)cc2)n[nH]1 | 13.1 µM
28 | Fc1ccc(CCNC(=S)Nc2ccc(F)c(Cl)c2)cc1 | 14.1 µM
29 | Cc1ccc(O)c(C2=NNC(c3ccc(Cl)cc3)C2)c1 (stereo unspecified) | 3.59 µM
30 | CCC1=NN(C(=O)c2cccc(Br)c2)C(O)(c2ccc(Br)cc2)C1 (stereo unspecified) | 12.3 µM
31 | CC(C)(C)C(O)C(Cc1ccccc1Cl)n1cncn1 (stereo unspecified) | 39.3 µM
32 | Cc1ccccc1C(=O)NNC(=S)NC(=O)c1ccc(Cl)cc1Cl | 34.3 µM
33 | COc1ccccc1C1CCN(C(=O)c2ccc(Cl)cc2)CC1 | 28.6 µM
34 | O=C(Nc1cc(Oc2ccc(Cl)cc2)cc([N+](=O)[O-])c1)c1ccco1 | 2.14 µM
35 | CC1=CC(C)(C)N(S(=O)(=O)c2ccc(C)cc2)c2ccc(C)cc21 | 18.4 µM
36 | O=CC1=C(c2ccccc2)Oc2ccccc2O1 | 7.46 µM
37 | Cc1ccc(O)c(-c2cc(-c3ccccc3C)[nH]n2)c1 | 6.3 µM
38 | Cc1ccc(NC(=O)CN(C)C(=O)c2cccnc2Nc2cccc(C(F)(F)F)c2)cc1 | 10.5 µM
39 | COc1cc([N+](=O)[O-])cc(/C=N/NC(=O)c2cncc(Br)c2)c1O | 16.8 µM
40 | Clc1ccc(C(Cn2ccnc2)OCc2c(Cl)cccc2Cl)c(Cl)c1 (stereo unspecified) | 2.36 µM
41 | CCCn1nc(C(=O)N2CCN(S(=O)(=O)c3ccc(C)c(C)c3)CC2)c2ccccc2c1=O | 8.13 µM
42 | CN(C)c1ccc(C=c2c3ccccc3n3c2c2c([n+]3C)CCCC2)cc1 | 0.228 µM
43 | CCCCNc1c(-c2ccc(-c3ccc(OC)cc3)c(OC)c2)nc2ccccn12 | 4.29 µM
44 | O=C(Nc1nc(-c2ccccn2)cs1)c1ccc(Br)s1 | 0.662 µM
45 | Cc1cc(Nc2ccccc2)nn1C(=O)c1ccccc1 | 43.1 µM
46 | S=C(Nc1ccc(Oc2ccccc2)cc1)NC1CCCCCC1 | 4.03 µM
47 | O=c1c2ccccc2nc(-c2ccc(-c3ccccc3)cc2)n1-c1ccncc1 | 18.3 µM
48 | Cc1oc2c(c1C(=O)c1ccccc1)C(=O)C(=O)c1ccccc1-2 | 3.48 µM
49 | CN(c1ccccc1)c1nc(N2CCCC2)nc(-n2ccnc2)n1 | 11.1 µM
50 | O=C(Nc1ccc(Cl)cc1C(=O)Nc1ccc(Br)cn1)c1ccco1 | 16.5 µM

Row | SMILES | AC35
51 | O=C(c1ccccc1)N1C(=O)C(c2ccccc2)Oc2ccccc21 (stereo unspecified) | 37.1 µM
52 | O=S(=O)(Nc1ccccc1)c1ccc(Oc2ncc(C(F)(F)F)cc2Cl)cc1 | 25.1 µM
53 | Oc1c(CN2CCCC2)cc(COCc2ccccc2)c2cccnc12 | 7.31 µM
54 | O=C(c1ccc(Cl)cc1)N1CCN(c2ccc(F)cc2)CC1 | 35.2 µM
55 | COc1cccc(/C=N/Nc2ncnc(Cl)c2N)c1O | 0.942 µM
56 | Cc1cc(C)c(C(=O)CC(=O)c2cccnc2)c(C)c1 | 8.29 µM
57 | CCN(CC)c1ccc(/C=N/NC(=O)c2c(Cl)cnn2C)c(O)c1 | 2.66 µM
58 | CCCCCCCCCCOC(=O)Cn1c(COc2ccccc2OC)[n+](C)c2ccccc21 | 0.346 µM
59 | CC1(C)C2CCC1(C)C(OC(=O)c1ccc(O)cc1)C2 (stereo unspecified) | 11.6 µM
60 | O=C1OCC(CO)(CO)N=C1NNc1ccc(Cl)c(Cl)c1 | 19.7 µM
61 | CC(C)(C)C(=O)C(Oc1ccc(Cl)cc1)n1cncn1 (stereo unspecified) | 36.1 µM
62 | CC(=O)NC(c1ccc(C)cc1)c1cc([N+](=O)[O-])c2cccnc2c1O (stereo unspecified) | 11.2 µM
63 | Nc1nc(-c2ccccc2)c(-c2ccc([N+](=O)[O-])cc2)s1 | 39.6 µM
64 | COc1ccc(/C=N/Nc2cc(C)nc(-n3nc(C)cc3C)n2)cc1 | 1.54 µM
65 | COc1cnc(-c2ccccn2)nc1Oc1ccc(C(C)(C)C)cc1 | 4.82 µM
66 | Cc1ccsc1/C=C/c1ccc2cccc(O)c2n1 | 11.9 µM
67 | O=Cc1cc(N=Nc2ccccc2Cl)ccc1O | 2.27 µM
68 | O=C(/C(=N/N=C/c1ccc(O)c(O)c1O)c1ccccc1)c1ccccc1 | 3.7 µM
69 | C[C@@]12CCC3[C@@](CCC4[C@@]3(C)CCC[C@@]4(C)C(=O)NCc3ccccc3)(CC1=O)C2 (stereo partly specified) | 21.7 µM
70 | Cc1ccc(Sc2ccc(NC(=O)CCl)cc2)cc1C | 0.321 µM
71 | O=C(Nc1nnc(SCc2ccc(F)cc2)s1)c1ccccn1 | 1.93 µM
72 | CCOC(=O)c1cnc(-n2nc(C)cc2C)nc1NC1CCCC1 | 4.23 µM
73 | CC1=CC(=O)C=C(C)C1=NOS(=O)(=O)c1ccccc1 | 5.53 µM
74 | O=C(Oc1c(Cl)cc(Cl)c2cccnc12)c1cccs1 | 19 µM
75 | O=c1cc(CSc2ccc(Cl)cc2)nc(-c2ccccn2)[nH]1 | 2.3 µM

Row | SMILES | AC35
76 | CC(C)C(=O)NC(c1ccco1)c1ccc2cccnc2c1O (stereo unspecified) | 1.77 µM
77 | CC1(C)C=Cc2c(ccc3c2OC[C@@H](c2ccc(O)cc2O)C3)O1 | 13.8 µM
78 | C=CCNC(=S)N1CCC(Cc2ccccc2)CC1 | 28 µM
79 | C=CCn1c(-c2cc(-c3ccc(C)cc3)nc3ccccc23)n[nH]c1=S | 14.1 µM
80 | O=C(N/N=C/c1cc(Cl)cc([N+](=O)[O-])c1O)c1ccccc1NS(=O)(=O)c1cccs1 | 41.5 µM
81 | Cc1cccc(Nc2nc(-c3ccc(O)cc3O)cs2)n1 | 18.6 µM
82 | Cc1ccc(Cl)cc1NC1=C/C(=N\S(=O)(=O)c2cccs2)c2ccccc2C1=O | 0.119 µM
83 | COc1cnc(-c2ccccn2)nc1Sc1ccccc1 | 9.03 µM
84 | O=[N+]([O-])c1ccc2c(OCc3nnc(-c4ccccc4Br)o3)ncnc2c1 | 21.8 µM
85 | O=C(Nc1ccc(Br)c(C(F)(F)F)c1)c1ccccc1 | 10.7 µM
86 | O=c1c2ccccc2c(-c2ccc(O)cc2)nn1-c1cccc(C(F)(F)F)c1 | 3.52 µM
87 | O=S1OC(c2ccccc2)c2cc(Cl)ccc21 (stereo unspecified) | 16.8 µM
88 | CC(C)N1CCN(c2ccc(OC[C@H]3CO[C@](Cn4cncn4)(c4ccc(Cl)cc4Cl)O3)cc2)CC1 | 7.37 µM
89 | O/N=C/c1ccccc1OCc1ccc(Cl)cc1 | 34.4 µM
90 | CC1CCN(c2nc(-c3ccncc3)nc3ccccc23)CC1 | 8.17 µM
91 | O=C1c2ccccc2-n2c1nc1ccccc1c2=O | 0.0617 µM
92 | COc1cc(NS(=O)(=O)c2ccc(C)cc2)c2ncccc2c1 | 6.38 µM
93 | CCn1c(CNc2ccc(Cl)cc2)nnc1SCc1ccc(Cl)cc1 | 38.6 µM
94 | [O-][n+]1cccc2c(Br)cc(Br)c(O)c21 | 2.77 µM
95 | CCCCC(=O)NC(=S)NNC(=O)CCc1ccccc1 | 23 µM
96 | C=CCNc1nc(-c2ccccn2)nnc1-c1ccccc1 | 2.22 µM
97 | O=C1c2cc(F)ccc2-n2c1nc1ccccc1c2=O | 0.0251 µM
98 | COc1cnc(-c2ccccn2)nc1Sc1ccc(C)cc1 | 3.64 µM
99 | Oc1c(C(Nc2cccc(C(F)(F)F)c2)c2ccncc2)ccc2cccnc12 (stereo unspecified) | 1.39 µM
100 | CCc1ccc(CN(C)C(=O)c2cc(COc3cccc(C(F)(F)F)c3)on2)nc1 | 29.1 µM

Row | SMILES | AC35
101 | CCOC(=O)N1C(=O)C2(CCCCC2)N(c2ccccc2Cl)C1=S | 30.5 µM
102 | CCCC1CCC(c2ccc(/C(N)=N/O)cc2)CC1 (stereo unspecified) | 24 µM
103 | Oc1ccc(N=Nc2ccc3c(c2)OCCO3)c2cccnc12 | 0.854 µM
104 | Cc1ccc2c(C)c3ccc4ccccc4c3c[n+]2c1 | 0.0701 µM
105 | Cc1cccc(NC(=S)NC(C)CCc2ccccc2)c1 (stereo unspecified) | 12.7 µM
106 | COc1ccccc1-c1sc2cc3c(cc2c1C#Cc1cncn1C)OCO3 | 2.96 µM
107 | O=c1c(O)c(-c2ccccc2)oc2ccccc12 | 21.6 µM
108 | CCCc1cc(C(N)=O)c(NC(=O)c2cc(C)on2)s1 | 39.7 µM
109 | Oc1c(I)cc(Cl)c2cccnc12 | 1.67 µM
110 | O=C(NOC(=O)c1ccccc1)c1ccccc1 | 20.1 µM
111 | CCCCC(CC)c1nnc(NC(=O)c2cccs2)s1 (stereo unspecified) | 37.3 µM
112 | Cc1ccc(S(=O)(=O)Nc2ccc(O)c3cccnc23)cc1 | 6.27 µM
113 | Cc1csc(NC(=O)C(C)Oc2ccc(Cl)cc2C)n1 (stereo unspecified) | 23 µM
114 | CCOC(=O)c1cc2c(=Cc3ccc(N(C)C)cc3)c3ccccc3n2[n+]1C | 2.44 µM
115 | CC(NC(=S)NC1CCC(C(C)(C)C)CC1)c1ccccc1 (stereo unspecified) | 8.88 µM
116 | O=C(NC(=S)N(CCc1ccccc1)CCc1ccccc1)c1ccco1 | 13.3 µM
117 | COc1cccc(CC(=O)Nc2ccc3nc(C)sc3c2)c1 | 43.9 µM
118 | Clc1ccc(COC(Cn2ccnc2)c2ccc(Cl)cc2Cl)c(Cl)c1 (stereo unspecified) | 1.57 µM and 1.95 µM
119 | O=C(c1ccccc1)c1ccc(Cn2cc(-c3ccccc3)nn2)cc1 | 40.3 µM
120 | CCCCCOc1ccc(CSc2n[nH]c(C)n2)cc1 | 8.7 µM
121 | Cc1c(Cc2ccccc2)c(NCCN(C)C)n2c(nc3ccccc32)c1C#N | 6.66 µM
